Assay results published in patent US20140051729A1, “COMPOSITIONS AND METHODS FOR TREATING DEGENERATIVE MUSCLE CONDITIONS” (University of Washington, priority 2011, published 2014).

Columns and labels:
[1] = test system: plasma creatine kinase (CK) activity; test: Plasma creatine kinase assay in mdx mice; format: in vivo, mouse; conditions: 5-month-old mdx males, day 4 post CTX, vs vehicle
Procedure: The effects of THI in the dystrophic mdx mouse model were studied. […] THI was administered intraperitoneally (IP) to three groups of mdx mice. Right tibialis anterior (TA) and quadriceps muscles were uninjured, while left counterparts were injured using CTX, a well characterized model of acute injury where initial muscle destruction is followed by a rapid myogenic response. The mdx mice were injected with THI, or PBS as a vehicle control, immediately following injury with CTX 5 times during a 3-day period (FIG. 3a). In the first group (N=6, 5-month-old males) the mdx mice were sacrificed at day 4 to analyze the efficacy of the administration of THI for increasing S1P levels in spleen, CTX injured quadriceps, and uninjured quadriceps. The effects of THI administration on the plasma creatine kinase (CK) activity level was also measured.
Mdx mouse plasma samples were diluted 1:50 and total creatine kinsase activity was measured by an enzymatic rate method using a Beckman Coulter instrument. Relative levels were then normalized to body weight.

[2] = test system: mdx mice; test: EDL muscle myography in mdx mice; format: in vivo, mouse; conditions: THI IP twice-daily two weeks
Procedure: The effect of THI administration on muscle function and recovery in mdx mice was analyzed. The mice were injected intraperitoneally with THI in PBS or vehicle alone (PBS) twice-daily for two weeks. Total amount of THI delivered per day was 75 ug. Extensor digitorum longus (EDL) muscles were excised from the mice and equilibrated in ringer's solution with 95% O2/5% CO2 for a minimum of 15 minutes prior to stimulation. Myography was conducted using a DMT 820S myograph and data was recorded using PowerLab 4/30 acquisition system with LabChart Pro software v7.3.1 (both from ADI instruments, Colorado Springs, Colo.). Stimulations were conducted with a Grass Instrument S88X system (Grass Technologies, West Warwick, R.I.). Muscles were stimulated to establish optimal fiber length (Lf) and voltage at which maximum tetanic force was measured at 120 Hz within a 450 ms duration.
Specific force was calculated as previously described in Gregorevic P. et al. (Gregorevic P. et al., Muscle Nerve. 2004 September; 30(3):295-304, PMID#15318340) by normalizing to whole muscle cross-sectional area (CSA). CSA is the quotient of […] muscle mass over the optimal muscle length (Lo) which is defined as the product of muscle fiber length (Lf) with the fiber length ratio (0.44 for EDL) and mammalian muscle density (1.06).
Muscle recovery was measured after muscle was fatigued with stimulation over 6 minutes. […] Recovery was determined by examining muscle force at 5, 10, and 15 minutes after stimulation. […] Therefore, the administration of THI improved muscle recovery and function in dystrophic mice.
The effect of THI-oxime administration on muscle function and recovery in mdx mice was analyzed. The mice were injected intraperitoneally with THI-oxime (n=3) or PBS vehicle alone (n=4) twice-daily for two weeks and then analyzed between 1-4 days following the final day of injection. Total amount of THI-oxime delivered per day was 75 ug. Prior to euthanasia, the animals were anesthetized with 0.5 mg/g weight avertin diluted in PBS. EDL muscles were excised from the mice and equilibrated in ringer's solution (120 mM NaCl, 4.7 mM KCl, 3.15 mM MgCl2, 1.3 mM NaH2PO4, 25 mM NaHCO3, 11 mM Glucose, 1.25 mM CaCl2, pH 7.2) with 95% O2/5% CO2 for a minimum of 15 minutes prior to stimulation. All functional experiments were carried out with buffer solutions at 25° C. under constant oxygenation. Myography was conducted using a DMT 820S myograph and data was recorded using PowerLab 4/30 acquisition system with LabChart Pro software v7.3.1 (both from ADI instruments, Colorado Springs, Colo.). […] Muscles were stimulated to establish optimal fiber length (Lf) and voltage at which maximum tetanic force was measured at 120 Hz within a 450 ms duration. […]

[3] = target: T1, SPL (Mus musculus, UniProt Q8R0X7); conditions: Schwab et al., Science 2005; cited from earlier work
T1 construct: host or cells: mice (in vivo)
T1 sequence (Q8R0X7 1-568): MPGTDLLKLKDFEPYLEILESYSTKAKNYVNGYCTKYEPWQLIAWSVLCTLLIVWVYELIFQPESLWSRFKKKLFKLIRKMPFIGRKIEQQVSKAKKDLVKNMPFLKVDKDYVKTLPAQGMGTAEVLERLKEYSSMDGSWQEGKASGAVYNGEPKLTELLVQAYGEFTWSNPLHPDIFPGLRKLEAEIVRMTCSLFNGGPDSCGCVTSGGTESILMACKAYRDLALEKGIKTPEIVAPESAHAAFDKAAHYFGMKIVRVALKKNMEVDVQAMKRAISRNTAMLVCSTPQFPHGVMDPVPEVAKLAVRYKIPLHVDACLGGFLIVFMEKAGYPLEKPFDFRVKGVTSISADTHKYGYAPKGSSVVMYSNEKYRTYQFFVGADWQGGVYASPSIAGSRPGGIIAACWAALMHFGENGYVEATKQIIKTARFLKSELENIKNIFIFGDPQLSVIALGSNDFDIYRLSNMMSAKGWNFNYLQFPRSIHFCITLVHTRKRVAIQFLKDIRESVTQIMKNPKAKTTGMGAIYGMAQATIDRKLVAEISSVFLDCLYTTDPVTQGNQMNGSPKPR

## CC(=O)c1ncc([C@@H](O)[C@H](O)[C@H](O)CO)[nH]1 [THI, 1-[5-[(1R,2S,3R)-1,2,3,4-tetrahydroxybutyl]-1H-imidazol-2-yl]-ethanone]
[1]
  plasma CK levels: reduced
[2]; 75 ug per day, vehicle 95.45
  maximum specific force of EDL muscle: 134.29 KN/m^2
[2]; vs vehicle
  muscle fatigue with stimulation over 6 minutes: fatigued at similar rates
  muscle recovery (force at 5, 10 and 15 minutes after stimulation): improved recovery
[3]
  SPL activity when administered to mice: inhibits SPL activity
